Measured values taken from publication PMC3535334 (Nature Communications, 2012).

Biological target: Nano-lantern (ATP1)
Conditions: 20 nM protein, 50 mM HEPES pH 7.2, coelenterazine-h 1-10 μM

Nc1ncnc2c1ncn2[C@@H]1O[C@H](COP(=O)(O)OP(=O)(O)OP(=O)(O)O)[C@@H](O)[C@H]1O [ATP]
Kd: 300 µM
